From patent publication US20240158446A1, “CYCLIC COMPOUND HAVING SELECTIVE INHIBITORY ACTION ON KRAS OVER HRAS AND NRAS” (CHUGAI SEIYAKU KABUSHIKI KAISHA, priority 2021, published 2024)

Key:
[1] = target: GDP-bound KRAS wild-type protein (Homo sapiens, UniProt P01116); experiment: Binding to KRAS by surface plasmon resonance (SPR), Single Cycle Kinetics; details: SPR, Single Cycle Kinetics, GDP-bound KRAS wild-type protein; read-out: KRAS KD
[2] = target: GDP-bound HRAS wild-type protein (Homo sapiens, UniProt P01112); experiment: Binding to HRAS by surface plasmon resonance (SPR), Single Cycle Kinetics; details: SPR, GDP-bound HRAS wild-type protein vs GDP-bound KRAS wild-type protein
[3] = target: GDP-bound NRAS wild-type protein (Homo sapiens, UniProt P01111); experiment: Binding to NRAS by surface plasmon resonance (SPR), Single Cycle Kinetics; details: SPR, GDP-bound NRAS wild-type protein vs GDP-bound KRAS wild-type protein
Sequence of GDP-bound NRAS wild-type protein (P01111 whole entry): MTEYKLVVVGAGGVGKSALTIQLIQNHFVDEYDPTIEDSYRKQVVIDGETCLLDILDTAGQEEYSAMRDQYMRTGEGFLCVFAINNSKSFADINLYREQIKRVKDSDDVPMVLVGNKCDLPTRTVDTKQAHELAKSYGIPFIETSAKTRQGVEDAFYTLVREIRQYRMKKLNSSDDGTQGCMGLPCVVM

Sequence of GDP-bound HRAS wild-type protein (P01112 whole entry): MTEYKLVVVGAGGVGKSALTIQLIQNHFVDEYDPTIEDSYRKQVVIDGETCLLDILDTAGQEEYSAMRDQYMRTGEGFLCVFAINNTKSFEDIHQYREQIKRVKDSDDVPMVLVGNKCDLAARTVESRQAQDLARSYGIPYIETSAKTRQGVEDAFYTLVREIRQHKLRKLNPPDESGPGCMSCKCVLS
Sequence of GDP-bound KRAS wild-type protein (P01116 whole entry): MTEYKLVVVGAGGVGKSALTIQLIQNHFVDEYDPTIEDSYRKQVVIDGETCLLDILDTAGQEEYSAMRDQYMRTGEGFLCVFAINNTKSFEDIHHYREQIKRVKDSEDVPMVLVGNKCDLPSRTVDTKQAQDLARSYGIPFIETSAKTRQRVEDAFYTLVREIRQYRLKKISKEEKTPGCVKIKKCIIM

Kd [1] [nM]	Structure (SMILES)	HRAS/KRAS (ratio of KD value for HRAS to KD value for KRAS) [2]	NRAS/KRAS (ratio of KD value for NRAS to KD value for KRAS) [3]
0.056	CCC[C@H]1C(=O)N[C@@H]([C@@H](C)CC)C(=O)N(C)CC(=O)N(C)[C@H]2C/C=C\CCN(C2=O)[C@@H](Cc2ccc(C(F)(F)F)cc2)C(=O)N(C)CC(=O)N[C@@H](CCc2cc(F)c(C(F)(F)F)c(F)c2)C(=O)N2C[C@H](OCC)C[C@H]2C(=O)NC2(CCC2)C(=O)N(C)[C@@H](C2CCCC2)C(=O)N(C)[C@H](C(=O)N(C)C)CC(=O)N1C [PP1110, (2S,8S,12R,14S,20S,23S,27S,30S,36S,38Z)-20-cyclopentyl-8-[2-[3,5-difluoro-4-(trifluoromethyl)phenyl]ethyl]-12-ethoxy-N,N,4,19,22,26,32,35-octamethyl-30-[(1S)-1-methylpropyl]-3,6,9,15,18,21,25,28,31,34,42-undecaoxo-27-propyl-2-[[4-(trifluoromethyl)phenyl]methyl]spiro[1,4,7,10,16,19,22,26,29,32,35-undecazatricyclo[34.5.1.0^10,14]dotetracont-38-ene-17,1′-cyclobutane]-23-carboxamide]	B (a compound having 3 or more and less than 10 is denoted as B)	A (a compound having 10 or more and less than 20 is denoted as A)
0.045	CCO[C@@H]1C[C@H]2C(=O)NC3(CCC3)C(=O)N(C)[C@@H](C3CCCC3)C(=O)N(C)[C@H](C(=O)N(C)C)CC(=O)N(C)[C@@H](CC3CC3)C(=O)N[C@@H]([C@@H](C)CC)C(=O)N(C)CC(=O)N(C)[C@H]3C/C=C\CCN(C3=O)[C@@H](Cc3ccc(C(F)(F)F)cc3)C(=O)N(C)CC(=O)N[C@@H](CCc3cc(F)c(C(F)(F)F)c(F)c3)C(=O)N2C1 [PP1111, (2S,8S,12R,14S,20S,23S,27S,30S,36S,38Z)-20-cyclopentyl-27-(cyclopropylmethyl)-8-[2-[3,5-difluoro-4-(trifluoromethyl)phenyl]ethyl]-12-ethoxy-N,N,4,19,22,26,32,35-octamethyl-30-[(1S)-1-methylpropyl]-3,6,9,15,18,21,25,28,31,34,42-undecaoxo-2-[[4-(trifluoromethyl)phenyl]methyl]spiro[1,4,7,10,16,19,22,26,29,32,35-undecazatricyclo[34.5.1.0^10,14]dotetracont-38-ene-17,1′-cyclobutane]-23-carboxamide]	A (a compound having 10 or more and less than 20 is denoted as A)	A (a compound having 10 or more and less than 20 is denoted as A)
0.031	CCO[C@@H]1C[C@H]2C(=O)NC3(CCC3)C(=O)N(C)[C@@H](C3CCCC3)C(=O)N(C)[C@H](C(=O)N(C)C)CC(=O)N(C)[C@@H](COC)C(=O)N[C@@H]([C@@H](C)CC)C(=O)N(C)CC(=O)N(C)[C@H]3C/C=C\CCN(C3=O)[C@@H](Cc3ccc(C(F)(F)F)cc3)C(=O)N(C)CC(=O)N[C@@H](CCc3cc(F)c(C(F)(F)F)c(F)c3)C(=O)N2C1 [PP1113, (2S,8S,12R,14S,20S,23S,27S,30S,36S,38Z)-20-cyclopentyl-8-[2-[3,5-difluoro-4-(trifluoromethyl)phenyl]ethyl]-12-ethoxy-27-(methoxymethyl)-N,N,4,19,22,26,32,35-octamethyl-30-[(1S)-1-methylpropyl]-3,6,9,15,18,21,25,28,31,34,42-undecaoxo-2-[[4-(trifluoromethyl)phenyl]methyl]spiro[1,4,7,10,16,19,22,26,29,32,35-undecazatricyclo[34.5.1.0^10,14]dotetracont-38-ene-17,1′-cyclobutane]-23-carboxamide]	A (a compound having 10 or more and less than 20 is denoted as A)	A (a compound having 10 or more and less than 20 is denoted as A)
0.054	C=CC[C@H]1C(=O)N[C@@H]([C@@H](C)CC)C(=O)N(C)CC(=O)N(C)[C@H]2C/C=C\CCN(C2=O)[C@@H](Cc2ccc(C(F)(F)F)cc2)C(=O)N(C)CC(=O)N[C@@H](CCc2cc(F)c(C(F)(F)F)c(F)c2)C(=O)N2C[C@H](OCC)C[C@H]2C(=O)NC2(CCC2)C(=O)N(C)[C@@H](C2CCCC2)C(=O)N(C)[C@H](C(=O)N(C)C)CC(=O)N1C [PP1114, (2S,8S,12R,14S,20S,23S,27S,30S,36S,38Z)-27-allyl-20-cyclopentyl-8-[2-[3,5-difluoro-4-(trifluoromethyl)phenyl]ethyl]-12-ethoxy-N,N,4,19,22,26,32,35-octamethyl-30-[(1S)-1-methylpropyl]-3,6,9,15,18,21,25,28,31,34,42-undecaoxo-2-[[4-(trifluoromethyl)phenyl]methyl]spiro[1,4,7,10,16,19,22,26,29,32,35-undecazatricyclo[34.5.1.0^10,14]dotetracont-38-ene-17,1′-cyclobutane]-23-carboxamide]	A (a compound having 10 or more and less than 20 is denoted as A)	A (a compound having 10 or more and less than 20 is denoted as A)
0.054	C#CC[C@H]1C(=O)N[C@@H]([C@@H](C)CC)C(=O)N(C)CC(=O)N(C)[C@H]2C/C=C\CCN(C2=O)[C@@H](Cc2ccc(C(F)(F)F)cc2)C(=O)N(C)CC(=O)N[C@@H](CCc2cc(F)c(C(F)(F)F)c(F)c2)C(=O)N2C[C@H](OCC)C[C@H]2C(=O)NC2(CCC2)C(=O)N(C)[C@@H](C2CCCC2)C(=O)N(C)[C@H](C(=O)N(C)C)CC(=O)N1C [PP1115, (2S,8S,12R,14S,20S,23S,27S,30S,36S,38Z)-20-cyclopentyl-8-[2-[3,5-difluoro-4-(trifluoromethyl)phenyl]ethyl]-12-ethoxy-N,N,4,19,22,26,32,35-octamethyl-30-[(1S)-1-methylpropyl]-3,6,9,15,18,21,25,28,31,34,42-undecaoxo-27-prop-2-ynyl-2-[[4-(trifluoromethyl)phenyl]methyl]spiro[1,4,7,10,16,19,22,26,29,32,35-undecazatricyclo[34.5.1.0^10,14]dotetracont-38-ene-17,1′-cyclobutane]-23-carboxamide]	A (a compound having 10 or more and less than 20 is denoted as A)	A (a compound having 10 or more and less than 20 is denoted as A)
0.069	CCO[C@@H]1C[C@H]2C(=O)NC3(CCC3)C(=O)N(C)[C@@H](C3CCCC3)C(=O)N(C)[C@H](C(=O)N(C)C)CC(=O)N(C)[C@@H](Cc3ccccc3)C(=O)N[C@@H]([C@@H](C)CC)C(=O)N(C)CC(=O)N(C)[C@H]3C/C=C\CCN(C3=O)[C@@H](Cc3ccc(C(F)(F)F)cc3)C(=O)N(C)CC(=O)N[C@@H](CCc3cc(F)c(C(F)(F)F)c(F)c3)C(=O)N2C1 [PP1116, (2S,8S,12R,14S,20S,23S,27S,30S,36S,38Z)-27-benzyl-20-cyclopentyl-8-[2-[3,5-difluoro-4-(trifluoromethyl)phenyl]ethyl]-12-ethoxy-N,N,4,19,22,26,32,35-octamethyl-30-[(1S)-1-methylpropyl]-3,6,9,15,18,21,25,28,31,34,42-undecaoxo-2-[[4-(trifluoromethyl)phenyl]methyl]spiro[1,4,7,10,16,19,22,26,29,32,35-undecazatricyclo[34.5.1.0^10,14]dotetracont-38-ene-17,1′-cyclobutane]-23-carboxamide]	A (a compound having 10 or more and less than 20 is denoted as A)	A (a compound having 10 or more and less than 20 is denoted as A)
0.07	CCO[C@@H]1C[C@H]2C(=O)NC3(CCC3)C(=O)N(C)[C@@H](C3CCCC3)C(=O)N(C)[C@H](C(=O)N(C)C)CC(=O)N(C)[C@@H](CC(C)(C)C)C(=O)N[C@@H]([C@@H](C)CC)C(=O)N(C)CC(=O)N(C)[C@H]3C/C=C\CCN(C3=O)[C@@H](Cc3ccc(C(F)(F)F)cc3)C(=O)N(C)CC(=O)N[C@@H](CCc3cc(F)c(C(F)(F)F)c(F)c3)C(=O)N2C1 [PP1117, (2S,8S,12R,14S,20S,23S,27S,30S,36S,38Z)-20-cyclopentyl-8-[2-[3,5-difluoro-4-(trifluoromethyl)phenyl]ethyl]-27-(2,2-dimethylpropyl)-12-ethoxy-N,N,4,19,22,26,32,35-octamethyl-30-[(1S)-1-methylpropyl]-3,6,9,15,18,21,25,28,31,34,42-undecaoxo-2-[[4-(trifluoromethyl)phenyl]methyl]spiro[1,4,7,10,16,19,22,26,29,32,35-undecazatricyclo[34.5.1.0^10,14]dotetracont-38-ene-17,1′-cyclobutane]-23-carboxamide]	A (a compound having 10 or more and less than 20 is denoted as A)	A (a compound having 10 or more and less than 20 is denoted as A)
0.037	CCO[C@@H]1C[C@H]2C(=O)NC3(CCC3)C(=O)N(C)[C@@H](C3CCCC3)C(=O)N(C)[C@H](C(=O)N(C)C)CC(=O)N(C)[C@@H](CSC)C(=O)N[C@@H]([C@@H](C)CC)C(=O)N(C)CC(=O)N(C)[C@H]3C/C=C\CCN(C3=O)[C@@H](Cc3ccc(C(F)(F)F)cc3)C(=O)N(C)CC(=O)N[C@@H](CCc3cc(F)c(C(F)(F)F)c(F)c3)C(=O)N2C1 [PP1119, (2S,8S,12R,14S,20S,23S,27R,30S,36S,38Z)-20-cyclopentyl-8-[2-[3,5-difluoro-4-(trifluoromethyl)phenyl]ethyl]-12-ethoxy-N,N,4,19,22,26,32,35-octamethyl-30-[(1S)-1-methylpropyl]-27-(methylsulfanylmethyl)-3,6,9,15,18,21,25,28,31,34,42-undecaoxo-2-[[4-(trifluoromethyl)phenyl]methyl]spiro[1,4,7,10,16,19,22,26,29,32,35-undecazatricyclo[34.5.1.0^10,14]dotetracont-38-ene-17,1′-cyclobutane]-23-carboxamide]	A (a compound having 10 or more and less than 20 is denoted as A)	A (a compound having 10 or more and less than 20 is denoted as A)
